Patent publication US11331299B2, “Medicinal use of serrulatane diterpenes” (The University of Sydney, priority 2016, dated 2022)
Read-outs that look alike come from different tables or passages of the source.

Test system: 280 human cancer cell lines
Assay: OncoPanel cell proliferation assay (10-day)
Type: cell-based
Conditions: Homo sapiens; for IC50: read-out: Cell Count IC50; for EC50: read-out: Cell Count EC50
[1] = SW872, SW872, Soft Tissue - Sarcoma
[2] = SW 954, SW954, Female GU - Vulva
[3] = SW982, SW982, Soft Tissue - Sarcoma
[4] = SW1353, SW1353, Soft Tissue - Osteosarcoma
[5] = TE 125.T, Soft Tissue - Sarcoma
[6] = TE 381.T, Soft Tissue - Sarcoma
[7] = U2OS, Soft Tissue - Osteosarcoma
[8] = U-118-MG, U-118 MG, CNS - Glioma
[9] = VA-ES-BJ, Soft Tissue - Sarcoma
[10] = WM 266-4, WM-266-4, Skin (Melanoma)

## CC(C)=CCC[C@@H]1C(O)Oc2c(C)cc(O)c3c2[C@H]1CC[C@H]3C (some centres unmarked) [Compound 2, 5,18-epoxyserrulat-14-en-8,18-diol]
SW837, SW837, Colon
  IC50: > 30 µM
[1]
  EC50: 4.46 µM
  IC50: 4.46 µM
SW872, SW872, Soft Tissue - Sarcoma, read-out: Cell Count GI50
  GI50: 4.45 µM
SW900, SW900, Lung - SCLC
  EC50: 26.6 µM
  IC50: 26.8 µM
SW900, SW900, Lung - SCLC, read-out: Cell Count GI50
  GI50: 26.7 µM
SW948, SW948, Colon
  EC50: 14.7 µM
  IC50: 14.7 µM
SW948, SW948, Colon, read-out: Cell Count GI50
  GI50: 14.5 µM
[2]
  EC50: > 30 µM
  IC50: > 30 µM
SW 954, SW954, Female GU - Vulva, read-out: Cell Count GI50
  GI50: > 30 µM
[3]
  EC50: 7.63 µM
  IC50: 7.63 µM
SW982, SW982, Soft Tissue - Sarcoma, read-out: Cell Count GI50
  GI50: 7.53 µM
SW1088, SW1088, CNS - Glioma
  EC50: 10.7 µM
  IC50: 10.7 µM
SW1088, SW1088, CNS - Glioma, read-out: Cell Count GI50
  GI50: 10.5 µM
[4]
  EC50: 9.49 µM
  IC50: 9.49 µM
SW1353, SW1353, Soft Tissue - Osteosarcoma, read-out: Cell Count GI50
  GI50: 9.46 µM
SW1417, SW1417, Colon
  EC50: 22.8 µM
  IC50: 22.8 µM
SW1417, SW1417, Colon, read-out: Cell Count GI50
  GI50: 21.8 µM
SW1463, SW1463, Colon
  EC50: > 30 µM
  IC50: > 30 µM
SW1463, SW1463, Colon, read-out: Cell Count GI50
  GI50: > 30 µM
SW1783, SW1783, CNS - Glioma
  EC50: 10.2 µM
  IC50: 11 µM
SW1783, SW1783, CNS - Glioma, read-out: Cell Count GI50
  GI50: 10.5 µM
SW-403, SW403, Colon
  EC50: > 30 µM
  IC50: > 30 µM
SW-403, SW403, Colon, read-out: Cell Count GI50
  GI50: > 30 µM
SW-620, SW620, Colon
  EC50: 13.2 µM
  IC50: 13.2 µM
SW-620, SW620, Colon, read-out: Cell Count GI50
  GI50: 13.2 µM
SiHa, Female GU - Cervix
  EC50: 28.3 µM
  IC50: 28.3 µM
SiHa, Female GU - Cervix, read-out: Cell Count GI50
  GI50: 25.8 µM
T24, Bladder
  EC50: 20.4 µM
  IC50: 20.4 µM
T24, Bladder, read-out: Cell Count GI50
  GI50: 20.3 µM
T47D, Breast
  EC50: 10.2 µM
  IC50: 10.2 µM
T47D, Breast, read-out: Cell Count GI50
  GI50: 9.4 µM
T98G, CNS - Glioma
  EC50: 19.1 µM
  IC50: 19.1 µM
T98G, CNS - Glioma, read-out: Cell Count GI50
  GI50: 19 µM
TCC-SUP, TCCSUP, Bladder
  EC50: 8.2 µM
  IC50: 8.2 µM
TCC-SUP, TCCSUP, Bladder, read-out: Cell Count GI50
  GI50: 7.78 µM
[5]
  EC50: > 30 µM
  IC50: > 30 µM
TE 125.T, Soft Tissue - Sarcoma, read-out: Cell Count GI50
  GI50: 28.7 µM
[6]
  EC50: 8.14 µM
  IC50: 8.14 µM
TE 381.T, Soft Tissue - Sarcoma, read-out: Cell Count GI50
  GI50: 7.99 µM
TF-1, Leukemia
  EC50: 2.75 µM
  IC50: 2.75 µM
TF-1, Leukemia, read-out: Cell Count GI50
  GI50: 2.44 µM
THP-1, Thp1, Leukemia
  EC50: 5.32 µM
  IC50: 5.69 µM
THP-1, Thp1, Leukemia, read-out: Cell Count GI50
  GI50: 5.61 µM
TUR, Lymphoma
  EC50: 2.63 µM
  IC50: > 30 µM
TUR, Lymphoma, read-out: Cell Count GI50
  GI50: > 30 µM
[7]
  EC50: 12.7 µM
  IC50: 12.7 µM
U2OS, Soft Tissue - Osteosarcoma, read-out: Cell Count GI50
  GI50: 12.7 µM
U138-MG, U-138MG, CNS - Glioma
  EC50: > 30 µM
  IC50: > 30 µM
U138-MG, U-138MG, CNS - Glioma, read-out: Cell Count GI50
  GI50: > 30 µM
U266B1, Myeloma
  EC50: 9.15 µM
  IC50: 9.28 µM
U266B1, Myeloma, read-out: Cell Count GI50
  GI50: 9.01 µM
U-87 MG, CNS - Glioma
  EC50: > 30 µM
  IC50: > 30 µM
U-87 MG, CNS - Glioma, read-out: Cell Count GI50
  GI50: > 30 µM
[8]
  EC50: 29.6 µM
  IC50: 29.6 µM
U-118-MG, U-118 MG, CNS - Glioma, read-out: Cell Count GI50
  GI50: 29.4 µM
UMUC3, UM-UC-3, Bladder
  EC50: 5.3 µM
  IC50: 5.75 µM
UMUC3, UM-UC-3, Bladder, read-out: Cell Count GI50
  GI50: 5.74 µM
[9]
  EC50: > 30 µM
  IC50: > 30 µM
VA-ES-BJ, Soft Tissue - Sarcoma, read-out: Cell Count GI50
  GI50: > 30 µM
[10]
  EC50: 6.39 µM
  IC50: 6.39 µM
WM 266-4, WM-266-4, Skin (Melanoma), read-out: Cell Count GI50
  GI50: 6.25 µM
WiDr, Colon
  EC50: 14.5 µM
  IC50: 14.5 µM
WiDr, Colon, read-out: Cell Count GI50
  GI50: 14.4 µM
Y79, Eye
  EC50: 6.57 µM
  IC50: 7.65 µM
Y79, Eye, read-out: Cell Count GI50
  GI50: 7.41 µM
YAPC, Pancreas
  EC50: 13 µM
  IC50: 13 µM
YAPC, Pancreas, read-out: Cell Count GI50
  GI50: 12.9 µM
strong: J-RT3-T3-5, Jurkat, MOLT-3, NALM-6, TF-1, RPMI8226, SKO-007, RD, read-out: GI50
  GI50: 1 to 2.96 µM
